From patent publication US10993951B2, “Fosfomycin formulation for parenteral administration” (priority 2016, dated 2021)
≈ marks a conversion by molar mass, not a printed value. Read-outs that look alike come from different tables or passages of the source.

Assays:
Assay type in all cases: cell-based
[1] = test system: Staphylococcus aureus ATTC 33592; experiment: MIC by tube dilution in microtiter plates, stored fosfomycin solution; conditions: read-out: minimal inhibitory concentration (MIC)
Description: (§1) The objective of the present investigation was to find out whether the antimicrobial activity of fosfomycin with a pH suitable for intravenous administration is maintained in a solvent suitable for intravenous use. For this, fosfomycin disodium (14.5 mmol sodium/g) and succinic acid were used to adjust the pH (0.025 grams of succinic acid per gram of fosfomycin).
(§2) A stock solution of 4 g of fosfomycin disodium and succinic acid (0.025 grams of succinic acid per gram of fosfomycin, corresponding to about 3 g of fosfomycin) in 10 ml distilled water was prepared and divided into 5 cryotubes at 2 ml each, and the solution was exposed at different temperatures as follows:
(§3) Aliquots of 2 ml of the sample were stored at −80° C., at refrigerator temperature (2-8° C.), at room temperature (20-25° C.), and at 45-65° C. until the test end. Another 2 ml of the stock solution were stored at refrigerator temperature (2-8° C.) and autoclaved before the tests at 125° C. for 30 minutes. After that, all samples were tested for their antimicrobioal activity.
(§4) To determine the antimicrobial activity of fosfomycin, the minimal inhibitory concentration (MIC) of the 4 mentioned bacteria strains was determined by a tube dilution method in microtiter plates using Mueller-Hinton broth. For the inoculation of the microtiter plates, the inoculum was adjusted to 1.5×104 germs/ml. The evaluation was made after 24 hours of incubation at 37° C.
(§5) Samples were taken, starting with 2,000 μg/ml test substance, diluted by a factor 2. Serial dilutions of 2,000 μg/ml to […] were prepared.

Escherichia coli AG 1215 = experiment: as above; conditions: read-out: minimal inhibitory concentration (MIC)
Description: as §1, §2, §3, §4, §5

[2] = test system: Staphylococcus aureus ATTC 33592; experiment: as above; conditions: read-out: minimal inhibitory concentration (MIC); remark: listed apart in the source
[3] = test system: Staphylococcus aureus ATTC 49775; experiment: as above; conditions: read-out: minimal inhibitory concentration (MIC)
[4] = test system: tested bacteria such as Staphylococcus and Escherichia; experiment: Stability studies: antimicrobial activity kept on storage; conditions: aqueous solution with an acid; after repeated autoclaving at 125° C. and months of storage
Description: as §1, §2, §3
To determine the antimicrobial activity of fosfomycin, the minimal inhibitory concentration (MIC) of the 4 mentioned bacteria strains was determined by a tube dilution method in microtiter plates using Mueller-Hinton broth. For the inoculation of the microtiter plates, the inoculum was adjusted to 1.5×104 germs/ml. […]

[5] = test system: Staphylococcus hominis AG 1115; experiment: MIC by tube dilution in microtiter plates, stored fosfomycin solution; conditions: read-out: minimal inhibitory concentration (MIC)

`C[C@@H]1O[C@@H]1P(=O)(O)O` [Fosfomycin, fosfomycin] showed an MIC ([1]; ATTC33592, 125 °C (refrigerator storage, autoclaved 30 minutes before tests), storage period 0 days) of 15.6 µg/mL (≈ 113 µM), an MIC ([1]; ATTC33592, 125 °C (refrigerator storage, autoclaved 30 minutes before tests), storage period 19 days) of 31.2 µg/mL (≈ 226 µM) and an MIC ([1]; ATTC33592, 125 °C (refrigerator storage, autoclaved 30 minutes before tests), storage period 31 days) of 7.8 µg/mL (≈ 56.5 µM). The MIC ([1]; ATTC33592, 456 h, storage temp. 20-25 °C, storage period 19 days) was 15.6 µg/mL (≈ 113 µM), the MIC ([1]; ATTC33592, 456 h, storage temp. 45-65 °C, storage period 19 days) was 31.2 µg/mL (≈ 226 µM) and the MIC ([1]; ATTC33592, 456 h, storage temp. −80 °C, storage period 19 days) was 7.8 µg/mL (≈ 56.5 µM). It also gave an MIC ([1]; ATTC33592, storage temp. 20-25 °C, storage period 31 days) of 7.8 µg/mL (≈ 56.5 µM), an MIC ([1]; ATTC33592, storage temp. 45-65 °C, storage period 31 days) of 7.8 µg/mL (≈ 56.5 µM) and an MIC ([1]; ATTC33592, storage temp. −80 °C, storage period 31 days) of 7.8 µg/mL (≈ 56.5 µM). It also gave an MIC (Escherichia coli AG 1215; AG1215, 0 h, storage temp. 4-8 °C, storage period 0 days) of 62.5 µg/mL (≈ 453 µM), an MIC (Escherichia coli AG 1215; AG1215, 0 h, storage temp. 20-25 °C, storage period 0 days) of 250 µg/mL (≈ 1810 µM) and an MIC (Escherichia coli AG 1215; AG1215, 0 h, storage temp. 45-65 °C, storage period 0 days) of 62.5 µg/mL (≈ 453 µM). It also gave an MIC (Escherichia coli AG 1215; AG1215, 0 h, storage temp. −80 °C, storage period 0 days) of 62.5 µg/mL (≈ 453 µM), an MIC (Escherichia coli AG 1215; AG1215, 125 °C (refrigerator storage, autoclaved 30 minutes before tests), storage period 0 days) of 125 µg/mL (≈ 905 µM) and an MIC (Escherichia coli AG 1215; AG1215, 125 °C (refrigerator storage, autoclaved 30 minutes before tests), storage period 19 days) of 125 µg/mL (≈ 905 µM). It also gave an MIC (Escherichia coli AG 1215; AG1215, 125 °C (refrigerator storage, autoclaved 30 minutes before tests), storage period 27 days) of 62.5 µg/mL (≈ 453 µM), an MIC (Escherichia coli AG 1215; AG1215, 125 °C (refrigerator storage, autoclaved 30 minutes before tests), storage period 59 days) of 31.2 µg/mL (≈ 226 µM) and an MIC (Escherichia coli AG 1215; AG1215, 125 °C (refrigerator storage, autoclaved 30 minutes before tests), storage period 64 days) of 62.5 µg/mL (≈ 453 µM). It also gave an MIC (Escherichia coli AG 1215; AG1215, 125 °C (refrigerator storage, autoclaved 30 minutes before tests), storage period 92 days) of 125 µg/mL (≈ 905 µM), an MIC (Escherichia coli AG 1215; AG1215, 456 h, storage temp. 4-8 °C, storage period 19 days) of 62.5 µg/mL (≈ 453 µM) and an MIC (Escherichia coli AG 1215; AG1215, 456 h, storage temp. 20-25 °C, storage period 19 days) of 125 µg/mL (≈ 905 µM). The MIC (Escherichia coli AG 1215; AG1215, 456 h, storage temp. 45-65 °C, storage period 19 days) was 250 µg/mL (≈ 1810 µM), the MIC (Escherichia coli AG 1215; AG1215, 456 h, storage temp. −80 °C, storage period 19 days) was 125 µg/mL (≈ 905 µM) and the MIC (Escherichia coli AG 1215; AG1215, 648 h, storage temp. 20-25 °C, storage period 27 days) was 31.2 µg/mL (≈ 226 µM). The MIC (Escherichia coli AG 1215; AG1215, 648 h, storage temp. 45-65 °C, storage period 27 days) was 31.2 µg/mL (≈ 226 µM), the MIC (Escherichia coli AG 1215; AG1215, 648 h, storage temp. −80 °C, storage period 27 days) was 62.5 µg/mL (≈ 453 µM) and the MIC (Escherichia coli AG 1215; AG1215, storage temp. 4-8 °C, storage period 92 days) was 62.5 µg/mL (≈ 453 µM). For the same compound, the MIC (Escherichia coli AG 1215; AG1215, storage temp. 20-25 °C, storage period 59 days) was 31.2 µg/mL (≈ 226 µM), the MIC (Escherichia coli AG 1215; AG1215, storage temp. 20-25 °C, storage period 64 days) was 31.2 µg/mL (≈ 226 µM) and the MIC (Escherichia coli AG 1215; AG1215, storage temp. 20-25 °C, storage period 92 days) was 125 µg/mL (≈ 905 µM). It also gave an MIC (Escherichia coli AG 1215; AG1215, storage temp. 45-65 °C, storage period 59 days) of 62.5 µg/mL (≈ 453 µM), an MIC (Escherichia coli AG 1215; AG1215, storage temp. 45-65 °C, storage period 64 days) of 62.5 µg/mL (≈ 453 µM) and an MIC (Escherichia coli AG 1215; AG1215, storage temp. 45-65 °C, storage period 92 days) of 125 µg/mL (≈ 905 µM). It also gave an MIC (Escherichia coli AG 1215; AG1215, storage temp. −80 °C, storage period 59 days) of 15.6 µg/mL (≈ 113 µM), an MIC (Escherichia coli AG 1215; AG1215, storage temp. −80 °C, storage period 64 days) of 62.5 µg/mL (≈ 453 µM) and an MIC (Escherichia coli AG 1215; AG1215, storage temp. −80 °C, storage period 92 days) of 62.5 µg/mL (≈ 453 µM). For the same compound, the MIC ([2]; ATTC33592, 0 h, storage temp. 4-8 °C, storage period 0 days) was 15.6 µg/mL (≈ 113 µM), the MIC ([2]; ATTC33592, 456 h, storage temp. 4-8 °C, storage period 19 days) was 7.8 µg/mL (≈ 56.5 µM) and the MIC ([2]; ATTC33592, storage temp. 4-8 °C, storage period 31 days) was 3.9 µg/mL (≈ 28.2 µM). The MIC ([3]; ATTC49775, 0 h, storage temp. 4-8 °C, storage period 0 days) was 7.8 µg/mL (≈ 56.5 µM), the MIC ([3]; ATTC49775, 456 h, storage temp. 4-8 °C, storage period 19 days) was 3.9 µg/mL (≈ 28.2 µM) and the MIC ([3]; ATTC49775, storage temp. 4-8 °C, storage period 31 days) was 3.9 µg/mL (≈ 28.2 µM). The “effectiveness against the tested bacteria after storage” value [4] was “effective”, the MIC ([5]; AG1115, 648 h, storage temp. 4-8 °C, storage period 27 days) was 15.6 µg/mL (≈ 113 µM) and the MIC ([5]; AG1115, storage temp. 4-8 °C, storage period 64 days) was 15.6 µg/mL (≈ 113 µM). It also gave an MIC ([5]; AG1115, storage temp. 4-8 °C, storage period 92 days) of 15.6 µg/mL (≈ 113 µM).
